Measurements from patent US20250017940A1, “SELECTIVE PEPTIDOMIMETIC MODULATORS OF CAV2.2 (N-TYPE) VOLTAGE-GATED CALCIUM CHANNELS AND USES THEREOF” (New York University, priority 2023, published 2025).

What was measured:
[1] = tested on: CRMP2; assay: Immunoblot of CRMP2 phosphorylation in CAD cells; format: cell-based, mouse; conditions: overnight incubation of CBD3063 (20 µM)
Method: Mouse neuron derived Cathecholamine A differentiated CAD cells (ECACC Cat #08100805, RRID: CVCL_0199) were grown in standard cell culture conditions, 37° C. in 5% (vol/vol) CO2. The cells were maintained in DMEM/F12 media supplemented with 10% (vol/vol) FBS (HyClone) and 1% penicillin/streptomycin sulfate from 10,000 μg/mL stock.
Indicated samples were loaded on 4-20% Novex gels (cat. no. XP04205BOX; Thermo Fisher Scientific, Waltham, MA). Proteins were transferred to preactivated PVDF membranes for 1 hour at 100 V using TGS [25 mM Tris, pH 8.5, 192 mM glycine, 0.1% (mass/vol) SDS], 20% (vol/vol) methanol as transfer buffer (0.45 μm; Cat #IPVH00010; Millipore Sigma, St. Louis, MO). After transfer, the membranes were blocked at room temperature for 1 hour with TBST (50 mM Tris·HCl, pH 7.4, 150 mM NaCl, 0.1% Tween 20) with 5% (mass/vol) nonfat dry milk, and then incubated overnight at 4° C. separately with indicated primary antibodies, β111-Tubulin (Cat #G7121; Promega, Madison, WI), CRMP2 (Cat #C2993; Sigma-Aldrich, St. Louis, MO), Cav2.2 (Cat #TA308673; Origene, Rockville, MD), CRMP2 pSer522 (Cat #CP2191; ECM Biosciences, Versailles, KY), and CRMP2 pThr514 (Cat #PA5-110113; Invitrogen, Waltham, MA), in TBST, 5% (mass/vol) BSA. For examining the effect of CBD3063 on CRMP2 phosphorylation state, CAD cells were treated overnight with vehicle (0.1% DMSO) or CBD3063 (20 μM) and the next day cells were lysed using RIPA buffer. Approximately 40 μg of total proteins were loaded on an SDS-PAGE and then transferred to polyvinylidene difluoride membranes and blocked at room temperature for 1 hour. Primary antibodies used for probing were CRMP2 (Cat #C2993, Sigma-Aldrich, St Louis, MO), CRMP2 pThr514 (Cat #PB-043, Kinasource, Dundee, Scotland, United Kingdom), CRMP2 pSer522 (Cat #CP2191, ECM Biosciences, Versailles, KY), and CRMP2 pT555 (Cat #CP2251, ECM Biosciences, Versailles, KY).

[2] = tested on: rat model of spared nerve injury (SNI); assay: Spared nerve injury (SNI) model, mechanical allodynia (von Frey paw withdrawal threshold); format: in vivo
Method: Rats were anesthetized with ketamine/xylazine 80/12 mg/kg intraperitoneally (i.p.) (Sigma-Aldrich, St. Louis, MO), and their head was placed in a stereotaxic frame. The cisterna magna was exposed and incised. As previously reported, an 8-cm catheter (PE-10; Stoelting, Wood Dale, IL) was implanted, terminating in the lumbar region of the spinal cord (Yaksh & Rudy, 1976). Catheters were sutured (using 3-0 silk sutures) into the deep muscle and externalized at the back of the neck. Autoclips were used to close the skin, and other surgeries were performed after a 5- to 7-day recovery period.
The neuropathic pain model induced by spared nerve injury (SNI) in rats was performed as previously described. Adult male rats (250 g, Envigo, Placentia, CA) were anesthetized with isoflurane (5% induction, 2% maintenance in 2 L/min air), and skin on the lateral surface of the left hind thigh was incised. Then, the biceps femoris muscle was dissected to expose the three terminal branches of the sciatic nerve. The common peroneal and tibial branches were tightly ligated with 4-0 silk and axotomized 2.0 mm distal to the ligation. Closure of the incision was made in two layers. The muscle was sutured once with 5-0 absorbable suture; skin was autoclipped. Animals were allowed to recover for 7 days before any testing. […]
Mechanical allodynia was assessed by measuring rats' paw withdrawal threshold in response to probing with a series of fine calibrated filaments (von Frey, Stoelting, Wood Dale, IL). Rats were placed in suspended plastic cages with wire mesh floor, and each von Frey filament was applied perpendicularly to the plantar surface of the paw. The “up-and-down” method (sequential increase and decrease of the stimulus strength) was used to determine the withdrawal threshold Dixon's nonparametric method was used for data analysis, as described by Chaplan et al., 1994. Data were expressed as the mean withdrawal threshold.

[3] = single intrathecal 0.3 μg/kg, 7 days after SNI, male rats

## CC(=O)N[C@@H]1CCCN(C(=O)NCCCNc2ccccn2)C1 [CBD3063, (3R)-3-acetamido-N-[3-(pyridin-2-ylamino)propyl]piperidine-1-carboxamide]
[1]
  expression of phosphorylated CRMP2 at site 514 (GSK-3β): no differences
  expression of phosphorylated CRMP2 at site 522 (Cdk5): no differences
  expression of phosphorylated CRMP2 at site 555 (RhoK): no differences
[2]; repeated i.t. 0.3 μg/kg once a day for 14 days
  tolerance (loss of antinociception): without any tolerance
[2]; repeated i.t. 0.3 μg/kg, rats with chronic neuropathic pain
  duration of reversal of mechanical allodynia with repeated intrathecal dosage: > 14 days
[2]; repeated i.t. injection 0.3 μg/kg once a day for 14 days (DMSO: 3.37±0.86)
  area under the curve of paw withdrawal threshold: 47.26±8.22
[2]; single i.t. injection 0.3 μg/kg, 0.5 to 36 hours (DMSO: 7.650±0.84)
  area under the curve of paw withdrawal threshold: 57.05±3.84
[2]; [3]
  duration of reversal of mechanical allodynia: up to 36 hours
  start of reversal of mechanical allodynia post-injection: 60 min
